One may read the viscosity as the internal friction of a fluid under shear. The term mass density denotes the mass of a sample divided by its volume. One may read the speed of sound as how fast a sound wave travels through the sample.

For the data set the following is noted: 298.15 K, 101.33 kPa, Liquid; for viscosity: Capillary tube (Ostwald / Ubbelohde) method; for mass density: Pycnometric method; for speed of sound: Sing-around technique in a fixed-path interferometer.

± gives the expanded uncertainty stated by the source.

`CCCCN` [1-butanamine]: the viscosity amounted to 0.486 ± 0.007 mPa·s, the mass density turned out to be 733.3 ± 1 kg/m3 and the speed of sound turned out to be 1249.7 ± 2.2 m/s.

Take `CCCCNCCCC` [dibutylamine]: the viscosity was 0.821 ± 0.008 mPa·s, the mass density was determined as 757.53 ± 0.74 kg/m3 and the speed of sound was 1243.4 ± 1.4 m/s.

As for `CCCCN(CCCC)CCCC` [tributylamine], the viscosity was found to be 1.258 ± 0.012 mPa·s, the mass density worked out at 773.56 ± 0.76 kg/m3 and the speed of sound came out at 1245.3 ± 1.4 m/s.

The values are drawn from the NIST ThermoML archive (doi:10.1016/j.jct.2005.12.007).
